The source of these data is article PMC11842588, “A first-in-class selective inhibitor of ERK1/2 and ERK5 overcomes drug resistance with a single-molecule strategy” (Signal Transduction and Targeted Therapy, 2025).

For assay [1], the system named is MDA-MB-468 cells with knockdown of ERK1/2/5. As to the kind of experiment: MTT assay in ERK1/2/5 siRNA knockdown cells. The assay is classed as cell-based. The following applies: Homo sapiens, siRNA co-transfection. On the procedure:
(§1) The transient transfection processes were performed according to Lipofectamine 3000 transfection procedure details. The transfected cells were used for subsequent experiments after 48 h or 72 h.
(§2) Cancer cells were seeded in a density in 96-well plates (2 × 10^3 cells per well). After incubation for 24 h, cancer cells were treated with compounds (0–20 μM) for 72 h.
In general terms: Tetrazolium dyes change colour on reduction, which living cells bring about.

Assay [2] relates to MDA-MB-231 cells with knockdown of ERK1/2/5. As to the kind of experiment: MTT assay in ERK1/2/5 siRNA knockdown cells. It counts as cell-based. The note with it: Homo sapiens, siRNA co-transfection. On the procedure:
as §1, §2

Assay [3] relates to 380 kinases. Kind of assay: Kinase profiling, whole panel. The assay is classed as biochemical, human. The following applies: 1 µM, panel of 380 kinases. On the procedure:
380 kinases inhibitory activities of SKLB-D18 were conducted by Eurofins Cerep SA. The result was illustrated by kinase tree (http://www.kinhub.org/kinmap/).

The target of assay [4] is T1, ERK1 (Homo sapiens, UniProt P27361). As to the kind of experiment: ADP-Glo kinase assay. The assay is classed as biochemical. (In general: ADP-Glo turns the ADP formed in a reaction into a luminescent signal.)
Assay [5] has as its system BT549 cells. As to the kind of experiment: MTT cell viability assay. The assay is classed as cell-based. The note with it: Homo sapiens, BT-549, 72 h. On the procedure:
(§3) MDA-MB-468 and MDA-MB-436 cells were cultured in Leibovitz’s L-15 medium supplemented with 10% fetal bovine serum. […] All of the cells were cultured at 37 °C in a humidified atmosphere containing 5% CO2.
as §2

The test system of assay [6] is MDA-MB-436 cells. Kind of assay: MTT cell viability assay. The assay is classed as cell-based. The note with it: Homo sapiens, 72 h. The procedure: as §3, §2
In assay [7] the test system is MDA-MB-231 cells. As to the kind of experiment: MTT cell viability assay. The assay is classed as cell-based. On the procedure: as §3, §2
In assay [8] the test system is MDA-MB-468 cells. As to the kind of experiment: MTT cell viability assay. It counts as cell-based. On the procedure:
as §3, §2

Assay [9] concerns the target ERK2 (Homo sapiens, UniProt P28482). As to the kind of experiment: Isothermal titration calorimetry (ITC) assay. The assay is classed as binding. The note with it: 25 °C. The procedure: (§4) The full-length human ERK1 or ERK2 with His-tag was cloned into a pET28a vector. hERK1/2 were expressed in Escherichia coli BL21(DE3), and then were purified using sequential Ni-NTA and Superdex 200 column steps. The SEC purified sample was then concentrated to 10 mg/ml and stored at −80 °C with buffer containing 20 mM HEPES pH 7.5, 150 mM NaCl. ERK5 (residues 48–395) containing His and GST tags was cloned into the pFastBac vector, and the recombinant plasmid was extracted. The recombinant plasmid was transformed into the DH10bac strain, and monoclonal was selected for culture. The recombinant Bacmid was then extracted according to the instructions of the Baculovirus Shuttle Vector Bacmid Mini Preparation Kit (Beyotime) and validated by PCR. 1 × 10^6/well Sf9 cells were counted for transfection and then amplified to obtain P3 ERK5 recombinant baculovirus. It was added to 2 × 10^6/mL Sf9 cells and incubated at 27 °C for 72 h on a shaker to express ERK5. Cells were lysed and supernatant was collected on a Ni-NTA for purification, and a 250 mM imidazole eluate was collected. […]
(§5) Calorimetric experiments were carried on an Affinity ITC (Waters, Shanghai) with 1 mM SKLB-D18 and 0.1 mM ERK1/2/5. […] The data were analyzed with the NanoAnalyze software employing a single binding site model. […]
(In general: Isothermal titration calorimetry measures the heat released or taken up as one component is titrated into another.)

Assay [10] addresses T1, ERK1. Kind of assay: Isothermal titration calorimetry (ITC) assay. The assay is classed as binding. The note with it: 25 °C. The procedure: as §4, §5

T1 sequence (P27361 whole entry): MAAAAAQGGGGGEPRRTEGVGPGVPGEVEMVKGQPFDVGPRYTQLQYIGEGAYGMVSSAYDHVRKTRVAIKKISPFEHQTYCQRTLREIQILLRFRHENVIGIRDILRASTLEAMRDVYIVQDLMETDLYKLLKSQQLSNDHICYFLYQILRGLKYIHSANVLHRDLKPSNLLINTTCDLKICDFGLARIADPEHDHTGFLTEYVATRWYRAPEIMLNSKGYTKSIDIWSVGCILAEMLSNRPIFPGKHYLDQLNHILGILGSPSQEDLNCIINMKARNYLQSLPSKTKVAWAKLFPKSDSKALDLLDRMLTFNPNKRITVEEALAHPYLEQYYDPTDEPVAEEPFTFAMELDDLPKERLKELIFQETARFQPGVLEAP
Chain of ERK2 (P28482 whole entry, the tested form may be a part): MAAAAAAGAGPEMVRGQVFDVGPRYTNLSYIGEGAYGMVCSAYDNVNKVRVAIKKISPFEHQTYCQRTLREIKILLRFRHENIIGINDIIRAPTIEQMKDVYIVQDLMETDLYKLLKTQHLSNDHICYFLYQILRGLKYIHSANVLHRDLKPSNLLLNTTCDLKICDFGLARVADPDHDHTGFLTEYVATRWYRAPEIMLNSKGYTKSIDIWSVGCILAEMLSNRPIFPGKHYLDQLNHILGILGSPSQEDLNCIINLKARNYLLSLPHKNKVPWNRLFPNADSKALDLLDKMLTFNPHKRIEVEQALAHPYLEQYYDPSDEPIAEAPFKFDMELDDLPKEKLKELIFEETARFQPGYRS

In the case of `CN(C)Cc1cccc(Nc2ncc(Cl)c(-c3csc(C(=O)NN4CCOCC4)c3)n2)c1` [SKLB-D18, 4-(5-chloro-2-((3-((dimethylamino)methyl)phenyl)amino)pyrimidin-4-yl)-N-morpholinothiophene-2-carboxamide], the half-maximal inhibitory concentration (IC50) (as a rule, the concentration that gives 50% inhibition) came out at 19.8 µM in [1]; 14.8 µM in assay [2]; 38.7 ± 0.62 nM in [4] (ADP-Glo); 3.21 ± 0.34 µM in assay [5]; 2310 ± 290 nM in [6]; 930 ± 110 nM in [7] (Homo sapiens, MDA-MB-231, read-out: IC50 MDA-MB-231, MTT, 72 h). In assay [8] (Homo sapiens, MDA-MB-468, MTT, 72 h), the IC50 was 1050 ± 130 nM. Also, the “number of protein kinases outside of ERK1/2/5 inhibited by >70%” value in assay [3] was found to be 8. Besides, the inhibition at 0.5 µM in assay [4] (read-out: Enzyme inhibitory activity (500 nM, %) ERK1) amounted to 95.62 ± 0.84%. Further, the “Anti-proliferative activity (10 μM, %) MDA-MB-231” value in assay [7] (10 μM) is given as 93.44 ± 1.21%. Moreover, the “Anti-proliferative activity (10 μM, %) MDA-MB-468” value in assay [8] (10 μM) turned out to be 92.18 ± 0.93%. For the same molecule, the equilibrium dissociation constant (Kd) (commonly the free concentration of one partner at which half of the binding sites on the other are occupied at equilibrium, for simple one-to-one binding) in assay [9] was determined as 210 nM; in [10], 127 nM.
